Literature values in patent publication US11583508B2, “Use of mitoxantrone liposome for treating non-Hodgkin's lymphoma” (CSPC ZHONGQI PHARMACEUTICAL TECHNOLOGY (SHIJIAZHUANG) CO., …, priority 2018, dated 2023).

Tested on: relapsed/refractory PTCL (RR-PTCL)
Details: monotherapy, second-line

Row | Compound | Primary endpoint: (ORR, %)
1 | O=C(/C=C/c1cccc(S(=O)(=O)Nc2ccccc2)c1)NO [Belinostat] | 25.8%
2 | C#CCC(Cc1cnc2nc(N)nc(N)c2n1)c1ccc(C(=O)N[C@@H](CCC(=O)O)C(=O)O)cc1 (some centres unmarked) [Pralatrexate] | 27%
